According to patent US20240300932A1, “N-PHENYLIMINE DERIVATIVE AND PREPARATION METHOD AND USE THEREOF” (Guizhou University, priority 2023, published 2024):

Columns and labels:
Amaranthus retroflexus = experiment: Post-emergence herbicidal activity test (stem and leaf spray, pot culture); assay type: in vivo; conditions: 3 weeks after spraying
Summary of the method: (§1)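 Seeds soaked 6 h at 25 °C, germinated at 28 °C, sown in loam pots and thinned to 10 plants/pot. At 2–3 leaves, plants received a single spray-tower application of 10, 5 or 2.5 g/mu. Fresh-weight control was graded 0–5 after 3 weeks.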

Echinochloa crusgalli = experiment: as above; assay type: in vivo; conditions: 3 weeks after spraying
Summary of the method: as §1

Abutilon theophrasti = experiment: as above; assay type: in vivo; conditions: 3 weeks after spraying
Summary of the method: as §1

Portulaca oleracea = experiment: as above; assay type: in vivo; conditions: 3 weeks after spraying
Summary of the method: as §1

Setaria viridis = experiment: as above; assay type: in vivo; conditions: 3 weeks after spraying
Summary of the method: as §1

Trifoliumre pensL. = experiment: as above; assay type: in vivo; conditions: 3 weeks after spraying
Summary of the method: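 Rates of 10, 5 and 2.5 g/mu were applied in a single spray-tower treatment to 2–3-leaf plants, thinned to 10 per pot. Formulation: acetone solution, Tween 80, 1.5 L/ha methyl oleate synergist. Weed response assessed after 3 further greenhouse weeks; mean of three experiments.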

SMILES | melting point [°C] | Post-emergence herbicidal activity, A. retroflexus (grade) (Amaranthus retroflexus; dosage 2.5 g/mu) | Post-emergence herbicidal activity, A. retroflexus (grade) (Amaranthus retroflexus; dosage 5 g/mu) | Post-emergence herbicidal activity, A. retroflexus (grade) (Amaranthus retroflexus; dosage 10 g/mu) | Post-emergence herbicidal activity, E. crusgalli (grade) (Echinochloa crusgalli; dosage 2.5 g/mu) | Post-emergence herbicidal activity, E. crusgalli (grade) (Echinochloa crusgalli; dosage 5 g/mu) | Post-emergence herbicidal activity, E. crusgalli (grade) (Echinochloa crusgalli; dosage 10 g/mu) | Post-emergence herbicidal activity, A. theophrasti (grade) (Abutilon theophrasti; dosage 2.5 g/mu) | Post-emergence herbicidal activity, A. theophrasti (grade) (Abutilon theophrasti; dosage 5 g/mu) | Post-emergence herbicidal activity, A. theophrasti (grade) (Abutilon theophrasti; dosage 10 g/mu) | Post-emergence herbicidal activity, P. oleracea (grade) (Portulaca oleracea; dosage 2.5 g/mu) | Post-emergence herbicidal activity, P. oleracea (grade) (Portulaca oleracea; dosage 5 g/mu) | Post-emergence herbicidal activity, P. oleracea (grade) (Portulaca oleracea; dosage 10 g/mu) | Post-emergence herbicidal activity, S. viridis (grade) (Setaria viridis; dosage 2.5 g/mu) | Post-emergence herbicidal activity, S. viridis (grade) (Setaria viridis; dosage 5 g/mu) | Post-emergence herbicidal activity, S. viridis (grade) (Setaria viridis; dosage 10 g/mu) | Post-emergence herbicidal activity, Trifoliumre pensL. (grade) (Trifoliumre pensL.; dosage 2.5 g/mu) | Post-emergence herbicidal activity, Trifoliumre pensL. (grade) (Trifoliumre pensL.; dosage 5 g/mu) | Post-emergence herbicidal activity, Trifoliumre pensL. (grade) (Trifoliumre pensL.; dosage 10 g/mu)
O=C1C2=C(CCCC2)C(=O)N1c1cc(OCc2ccc(F)cc2)c(Cl)cc1F [Compound C10, 2-(4-chloro-2-fluoro-5-((4-fluorobenzyl)oxy)phenyl)-4,5,6,7-tetrahydro-1H-isoindole-1,3(2H)-dione] | 119 to 121 | 5 (Grade 5: the growth control rate is greater than or equal to 85%) | 5 (Grade 5: the growth control rate is greater than or equal to 85%) | 5 (Grade 5: the growth control rate is greater than or equal to 85%) | 1 (Grade 1: the growth control rate is greater than or equal to 5% and less than 20%) | 2 (Grade 2: the growth control rate is greater than or equal to 20% and less than 40%) | 3 (Grade 3: the growth control rate is greater than or equal to 40% and less than 60%) | 5 (Grade 5: the growth control rate is greater than or equal to 85%) | 5 (Grade 5: the growth control rate is greater than or equal to 85%) | 5 (Grade 5: the growth control rate is greater than or equal to 85%) | 5 (Grade 5: the growth control rate is greater than or equal to 85%) | 5 (Grade 5: the growth control rate is greater than or equal to 85%) | 5 (Grade 5: the growth control rate is greater than or equal to 85%) | 2 (Grade 2: the growth control rate is greater than or equal to 20% and less than 40%) | 3 (Grade 3: the growth control rate is greater than or equal to 40% and less than 60%) | 4 (Grade 4: the growth control rate is greater than or equal to 60% and less than 85%) | 5 (Grade 5: the growth control rate is greater than or equal to 85%) | 5 (Grade 5: the growth control rate is greater than or equal to 85%) | 5 (Grade 5: the growth control rate is greater than or equal to 85%)
O=C(Nc1cc(N2C(=O)C3=C(CCCC3)C2=O)c(F)cc1Cl)C1CCC1 [Compound D9, N-(2-chloro-5-(1,3-dioxo-1,3,4,5,6,7-hexahydro-2H-isoindole-2-yl)-4-fluorophenyl)cyclobutanecarboxamide] | 145 to 147 | – | – | 5 (Grade 5: the growth control rate is greater than or equal to 85%) | – | – | 3 (Grade 3: the growth control rate is greater than or equal to 40% and less than 60%) | – | – | 5 (Grade 5: the growth control rate is greater than or equal to 85%) | – | – | 5 (Grade 5: the growth control rate is greater than or equal to 85%) | – | – | 3 (Grade 3: the growth control rate is greater than or equal to 40% and less than 60%) | – | – | 5 (Grade 5: the growth control rate is greater than or equal to 85%)
O=C(COc1cc(N2C(=O)C3=C(CCCC3)C2=O)c(F)cc1Cl)c1ccc(F)cc1 [Compound C8, 2-(4-chloro-2-fluoro-5-(2-oxo-2-(4-fluorophenyl)ethoxy)phenyl)-4,5,6,7-tetrahydro-1H-isoindole-1,3(2H)-dione] | 126 to 128 | 5 (Grade 5: the growth control rate is greater than or equal to 85%) | 5 (Grade 5: the growth control rate is greater than or equal to 85%) | 5 (Grade 5: the growth control rate is greater than or equal to 85%) | 1 (Grade 1: the growth control rate is greater than or equal to 5% and less than 20%) | 2 (Grade 2: the growth control rate is greater than or equal to 20% and less than 40%) | 3 (Grade 3: the growth control rate is greater than or equal to 40% and less than 60%) | 5 (Grade 5: the growth control rate is greater than or equal to 85%) | 5 (Grade 5: the growth control rate is greater than or equal to 85%) | 5 (Grade 5: the growth control rate is greater than or equal to 85%) | 5 (Grade 5: the growth control rate is greater than or equal to 85%) | 5 (Grade 5: the growth control rate is greater than or equal to 85%) | 5 (Grade 5: the growth control rate is greater than or equal to 85%) | 2 (Grade 2: the growth control rate is greater than or equal to 20% and less than 40%) | 3 (Grade 3: the growth control rate is greater than or equal to 40% and less than 60%) | 4 (Grade 4: the growth control rate is greater than or equal to 60% and less than 85%) | 5 (Grade 5: the growth control rate is greater than or equal to 85%) | 5 (Grade 5: the growth control rate is greater than or equal to 85%) | 5 (Grade 5: the growth control rate is greater than or equal to 85%)
O=C1C2=C(CCCC2)C(=O)N1c1cc(OCc2nnc(-c3cccc(Cl)c3)o2)c(Cl)cc1F [Compound B2, 2-(4-chloro-5-((5-(3-chlorophenyl)-1,3,4-oxadiazole-2-yl)methoxy)-2-fluorophenyl)-4,5,6,7-tetrahydro-1H-isoindole-1,3(2H)-dione] | 158 to 162 | 5 (Grade 5: the growth control rate is greater than or equal to 85%) | 5 (Grade 5: the growth control rate is greater than or equal to 85%) | 5 (Grade 5: the growth control rate is greater than or equal to 85%) | 1 (Grade 1: the growth control rate is greater than or equal to 5% and less than 20%) | 2 (Grade 2: the growth control rate is greater than or equal to 20% and less than 40%) | 3 (Grade 3: the growth control rate is greater than or equal to 40% and less than 60%) | 5 (Grade 5: the growth control rate is greater than or equal to 85%) | 5 (Grade 5: the growth control rate is greater than or equal to 85%) | 5 (Grade 5: the growth control rate is greater than or equal to 85%) | 5 (Grade 5: the growth control rate is greater than or equal to 85%) | 5 (Grade 5: the growth control rate is greater than or equal to 85%) | 5 (Grade 5: the growth control rate is greater than or equal to 85%) | 2 (Grade 2: the growth control rate is greater than or equal to 20% and less than 40%) | 3 (Grade 3: the growth control rate is greater than or equal to 40% and less than 60%) | 4 (Grade 4: the growth control rate is greater than or equal to 60% and less than 85%) | 5 (Grade 5: the growth control rate is greater than or equal to 85%) | 5 (Grade 5: the growth control rate is greater than or equal to 85%) | 5 (Grade 5: the growth control rate is greater than or equal to 85%)
CC(=O)Nc1cc(N2C(=O)C3=C(CCCC3)C2=O)c(F)cc1Cl [Compound D1, N-(2-chloro-5-(1,3-dioxo-1,3,4,5,6,7-hexahydro-2H-isoindole-2-yl)-4-fluorophenyl)acetamide] | 155 to 157 | – | – | 5 (Grade 5: the growth control rate is greater than or equal to 85%) | – | – | 3 (Grade 3: the growth control rate is greater than or equal to 40% and less than 60%) | – | – | 5 (Grade 5: the growth control rate is greater than or equal to 85%) | – | – | 5 (Grade 5: the growth control rate is greater than or equal to 85%) | – | – | 4 (Grade 4: the growth control rate is greater than or equal to 60% and less than 85%) | – | – | 5 (Grade 5: the growth control rate is greater than or equal to 85%)
